Key:
[1] = test system: varicella zoster virus (VZV); details: for anti-VZV activity (in words): HEL cells; for antiviral activity (in words): at 100 μM
[2] = test system: human embryonic lung (HEL) cells; details: Table 2, concentration that causes a microscopically detectable alteration of morphology
[3] = test system: varicella-zoster virus (VZV) TK+ OKA strain; assay: microbe, parasite or virus in culture; assay type: cell-based; details: Human alphaherpesvirus 3, HEL, read-out: EC50 TK+ OKA
HCMV, HSV-1, HSV-2 = assay type: cell-based; details: HCMV AD-169 and Davis, HSV-1 KOS and TK- KOS ACVr, HSV-2 G; HEL cell cultures
[4] = test system: broad variety of RNA viruses, including HIV-1 and HIV-2, feline coronavirus, vesicular stomatitis virus, Coxsackie virus B4, respiratory syncytial virus …; assay type: cell-based
[5] = test system: varicella zoster virus (VZV); assay: in vitro; details: human
[6] = test system: varicella zoster virus (VZV); assay: microbe, parasite or virus in culture; details: Human alphaherpesvirus 3, HEL, read-out: EC50 against VZV
[7] = test system: human embryonic lung (HEL) cells; assay: Cytotoxicity, inhibition of HEL cell growth; assay type: cell-based; details: for cytotoxic activity (in words): at 100 μM
[8] = test system: human cytomegalovirus (HCMV) Davis strain; assay: microbe, parasite or virus in culture; assay type: cell-based; details: Human betaherpesvirus 5, HEL, read-out: Antiviral activity EC50 HMCV Davis
[9] = Cytotoxicity, inhibition of HEL cell growth; assay type: cell-based, human; details: human, human embryonic lung (HEL) cells, CC50, cytotoxic concentration required to reduce HEL cell growth by 50%; 3 days

SMILES	anti-VZV activity (in words) [1]	Cytotoxicity MMC [2] [µM]	other results
CC(=O)N(CCc1cn(C)c2ccccc12)c1cccc2ccccc12 [Compound 17e]	complete loss of the antiviral activity	–	–
CCCn1cc(CN2CCCCC2)c2cc(NC(=O)c3ccccc3)ccc21 [Compound 8c]	–	100	–
O=c1[nH]c(=O)n([C@H]2C[C@H](O)[C@@H](CO)O2)cc1/C=C/Br [Brivudin, brivudin, reference compound]	–	>250	EC50 [3]: 20 to 30 nM
CC(=O)N(CCc1ccc(-c2ccccc2)cc1)CCc1cn(C)c2ccccc12 [Compound 17a]	–	20	activity against other Herpesviridae (in words) (HCMV, HSV-1, HSV-2): totally inactive; inhibitory activity against RNA viruses (in words) [4]: totally inactive; selectivity ratio [5]: 10 to 20; EC50 [6]: 1700 to 3600 nM
Cn1cc(CCN(CCc2ccc(-c3ccccc3)cc2)C(=O)OC(C)(C)C)c2ccccc21 [Compound 18d]	annihilation of antiviral activity	–	–
Cn1cc(CCNCCc2ccc(-c3ccccc3)cc2)c2ccccc21 [Compound 16a]	–	>4	–
c1ccc(-c2ccc(Cn3cc(CN4CCCCC4)c4ccccc43)cc2)cc1 [Compound 4d]	–	20	–
CCCn1cc(C(=O)c2ccc(Cl)cc2)c2ccccc21 [Compound 4a]	–	>100	cytotoxic activity (in words) [7]: do not displayed antiviral or cytotoxic activities; antiviral activity (in words) [1]: do not displayed antiviral or cytotoxic activities
CCCn1cc(CN2CCCCC2)c2ccccc21 [Compound 4b]	–	>100	cytotoxic activity (in words) [7]: do not displayed antiviral or cytotoxic activities; antiviral activity (in words) [1]: do not displayed antiviral or cytotoxic activities
COC(=O)c1ccc(CNCCc2cn(Cc3ccc(-c4ccccc4)cc3)c3ccccc23)cc1 [Compound 15]	–	20	–
CC(=O)N(CCc1cn(C)c2ccccc12)c1ccc2ccccc2c1 [Compound 17d]	complete loss of the antiviral activity	–	–
CCCn1cc(CNCCc2ccc(-c3ccccc3)cc2)c2cc(CNc3ccc(Cl)cc3)ccc21 [Compound 8b]	–	20	–
Cn1cc(CCN(CCc2ccc(-c3ccccc3)cc2)C(=O)CCN2CCOCC2)c2ccccc21 [Compound 18c]	annihilation of antiviral activity	–	–
CCCn1cc(CN2CCCCC2)c2cc(CNc3ccc(Cl)cc3)ccc21 [Compound 8a]	–	20	–
Nc1ccn(C[C@@H](CO)OCP(=O)(O)O)c(=O)n1.O.O [Cidofovir, reference compound]	–	>250	EC50 [8]: 510 nM
CC(=O)N(CCc1cn(C)c2ccccc12)Cc1ccc(Oc2ccccc2)cc1 [Compound 17i]	complete loss of the antiviral activity	–	–
CC(=O)N(CCc1cn(C)c2ccccc12)Cc1ccc2ccccc2c1 [Compound 17f]	complete loss of the antiviral activity	–	–
CC(=O)N(CCc1cn(C)c2ccccc12)Cc1cccc2ccccc12 [Compound 17g]	complete loss of the antiviral activity	–	–
CCCn1cc(CNCCc2ccc(-c3ccccc3)cc2)c2ccccc21 [Compound 4c]	–	4	–
Nc1nc2c(ncn2COCCO)c(=O)[nH]1 [Acyclovir, acyclovir, reference compound]	–	>250	CC50 at 3 days [9]: 224000 nM; CC50 ([7]; cytotoxic concentration required to reduce HEL cell growth by 50%, 3 days): 191000 nM
CC(=O)N(CCc1cn(C)c2ccccc12)Cc1ccc(-c2ccccc2)cc1 [Compound 17h]	complete loss of the antiviral activity	–	–
Cn1cc(CCN(CCc2ccc(-c3ccccc3)cc2)C(=O)C2CCCCC2)c2ccccc21 [Compound 18a]	annihilation of antiviral activity	–	–

Source: paper PMC7115581 (European Journal of Medicinal Chemistry, 2016)
